Series [1] has as its system human erythrocytes. Description: Hemolytic activity. It is filed as cell-based. The settings on record: 1 h at 37°C. As for the experimental part: The hemolytic activity of the peptides was measured as the amount of hemoglobin released by the lysis of human erythrocytes. Briefly, 1 ml of fresh human blood cells (hRBCs) obtained from a healthy donor (Na Dong, Harbin, China) in a polycarbonate tube containing heparin was centrifuged at 1,000×g for 5 min at 4°C [16]. The experimental protocol was reviewed and approved by the ethics committee of the Northeast Agricultural University Hospital. The erythrocytes obtained were washed three times with phosphate-buffered saline (PBS) solution (pH 7.2) and resuspended in PBS. A 50 µl volume of the erythrocyte solution was incubated with 50 µl of various peptides dissolved in PBS for 1 h at 37°C. Intact erythrocytes were pelleted by centrifugation at 1,000×g for 5 min at 4°C, and the supernatant was transferred to a new 96-well plate. The release of hemoglobin was monitored by measuring the absorbance at 570 nm. As negative and positive controls, hRBCs in PBS without the peptide and 0.1% Triton X-100 were employed, respectively.

Series [2] deals with E. coli ATCC 25922. Description: FACScan analysis of membrane integrity (propidium iodide). The series is classed as cell-based, Escherichia coli. As for the experimental part: The integrity of the bacterial cell membranes after peptide treatment was determined using a previously described method. In brief, mid-logarithmic phase E. coli ATCC 25922 were harvested by centrifugation and washed three times with 10 mM PBS solution. The peptides (1×MIC and 2×MIC) were added and incubated for 30 min at 28°C with constant shaking at 140 rpm, and then, propidium iodide (PI, 10 µg/ml final concentration, Sigma) was added and incubated for a further 30 min at 4°C. After incubation, the unbound dye was removed via excessive washing of cells with PBS. Flow cytometry analysis was conducted using a FACScan instrument (Becton–Dickinson, San Jose, CA). E. coli cells were incubated with PI without peptide treated as negative control.

Series [3] has as its system Escherichia coli UB1005. Particulars: broth microdilution, MH broth, 1×10^5 CFU/ml, 24 h at 37°C, visible turbidity, triplicate. As for the experimental part:
(§1) The antimicrobial activity of each peptide was determined against the following bacteria strains: Escherichia coli ATCC 25922, Escherichia coli UB1005, Salmonella enterica serovar typhimurium C77-31, Staphylococcus aureus ATCC 29213, Staphylococcus aureus ATCC 25923 and Staphylococcus epidermidis ATCC 12228. The minimal inhibitory concentrations (MICs) of the peptides were measured according to a modified version of the National Committee for Clinical Laboratory Standards (NCCLS) broth microdilution method as described previously. Briefly, mid-logarithmic phase bacteria were cultured in Mueller-Hinton (MH) broth and then diluted to 1×10^5 CFU/ml. Equal volumes (50 µl) of microorganism solution and 2-fold serially diluted different concentrations (0.25–128 µM) peptides in 0.01% (v/v) acetic acid and 0.2% (w/v) bovine serum albumin (BSA, Sigma) were added to each well of the sterile 96-well plate. After incubation for 24 h at 37°C, MICs were determined as the lowest concentration of peptides that prevented visible turbidity by visual inspection. The tests were performed in triplicate. Cultures without peptides and uninoculated MH broth were employed as positive and negative controls, respectively. In addition, the salt stability of the peptides was tested in the MIC assay mentioned above.
In general terms: Dilution methods test growth across graded concentrations, often in twofold steps.

In series [4] the test system is Salmonella enterica serovar typhimurium C77-31. The settings on record: broth microdilution, MH broth, 1×10^5 CFU/ml, 24 h at 37°C, visible turbidity, triplicate. As for the experimental part: as §1
Series [5] concerns Staphylococcus epidermidis ATCC 12228. Particulars: broth microdilution, MH broth, 1×10^5 CFU/ml, 24 h at 37°C, visible turbidity, triplicate. As for the experimental part:
as §1

Series [6] deals with gram-negative and gram-positive bacteria (six strains tested). Particulars: 24 h. As for the experimental part:
as §1

For series [7], the system named is E. coli UB1005. Nature of the series: Inner (cytoplasmic) membrane depolarization, diSC3(5). The series is classed as cell-based, Escherichia coli. Particulars: 0.4 µM diSC3(5), monitored over 360 s. As for the experimental part:
The cytoplasmic membrane depolarization activity of the peptides was measured by using E. coli UB1005 and the membrane potential sensitive fluorescent dye diSC3(5) as described previously. Briefly, mid-logarithmic phase E. coli were washed with 5 mM sodium HEPES buffer, pH 7.4, containing 20 mM glucose, and resuspended to an OD600 of 0.05 in the same buffer. The cell suspension was incubated with 0.4 µM diSC3(5) until a stable reduction of fluorescence was achieved (approximately 1 h). Then KCl was added to a final concentration of 0.1 M to equilibrate the cytoplasmic and external K^+. Two milliliters of the cell suspension were placed in a 1 cm cuvette, and the peptides were added to achieve the desired concentrations. Changes in fluorescence were recorded using an F-4500 fluorescence spectrophotometer (Hitachi, Japan) with an excitation wavelength of 622 nm and an emission wavelength of 670 nm. 0.1% Triton X-100 was employed as positive controls.

Converted amounts (≈) assume the structure as drawn.

Consider `CC[C@H](C)[C@H](NC(=O)CN)C(=O)NCC(=O)N[C@@H](C)C(=O)N[C@H](C(=O)N[C@@H](CC(C)C)C(=O)N[C@@H](CCCCN)C(=O)N[C@H](C(=O)N[C@@H](CC(C)C)C(=O)N[C@H](C(=O)N[C@H](C(=O)NCC(=O)N[C@@H](CC(C)C)C(=O)N1CCC[C@H]1C(=O)N[C@@H](C)C(=O)N[C@@H](CC(C)C)C(=O)N[C@H](C(=O)N[C@@H](CO)C(=O)N[C@@H](Cc1c[nH]c2ccccc12)C(=O)N[C@H](C(=O)N[C@@H](CCCCN)C(=O)N[C@@H](CCCNC(=N)N)C(=O)N[C@@H](CCCCN)C(=O)N[C@@H](CCCNC(=N)N)C(=O)N[C@@H](CCC(N)=O)C(=O)N[C@@H](CCC(N)=O)C(N)=O)[C@@H](C)CC)[C@@H](C)CC)[C@@H](C)O)[C@@H](C)O)C(C)C)C(C)C` [melittin, reference compound], for which, in series [1], the “Concentration causing complete hemolysis” value came out at 4 µM. In addition, in series [2], the “Cells stained with PI” value turned out to be 40.7%. Besides, the “MIC E. coli UB 1005” value in series [3] is 2 µM (≈ 5.69 µg/mL). Besides, the “MIC S. typhimurium C77-31” value in series [4] was 2 µM (≈ 5.69 µg/mL). Moreover, the “MIC S. epidermidis ATCC 12228” value in series [5] came to 0.5 µM (≈ 1.42 µg/mL). For the same compound, in series [6], the “GM, geometric mean of the MICs” value was 2.52 µM. Also, in series [7], the “Cytoplasmic membrane depolarization (diSC3(5) fluorescence, in words)” value was “induced dose-dependent increases in diSC3(5) fluorescence”.

Source of the values: paper PMC3897731, “Antimicrobial Properties and Membrane-Active Mechanism of a Potential α-Helical Antimicrobial Derived from Cathelicidin PMAP-36” (PLoS ONE, 2014).
